# Measured values: paper PMC11419154 (bioRxiv, 2024)
# “Also recorded” adds a separate entry of the source.
# How the values were obtained:
# Assay type in all cases: cell-based, Drosophila melanogaster
# dTRPA1-C = test: Calcium imaging in cIII da neurons expressing dTRPA1-C; conditions: AITC application at time 0 s; n = 12 neurons
# [1] = test system: Pickpocket (ppk RNAi in cIV da neurons); test: Calcium imaging in cIV da neurons with ppk RNAi; conditions: versus attP genetic control; n = 6 neurons
# [2] = test system: Balboa (bba RNAi in cIV da neurons); test: Calcium imaging in cIV da neurons with bba RNAi; conditions: versus attP2 genetic control; n = 6 neurons
# [3] = test system: class III dendritic arborizing (cIII da) neurons; test: Confocal GCaMP6f calcium imaging in larval cIII da neurons; conditions: AITC application at time 0 s; n = 12 neurons
# dTRPA1-D = test: Calcium imaging in cIII da neurons expressing dTRPA1-D; conditions: AITC application at time 0 s; n = 12 neurons
structure (smiles),measurement,setting,value
"C=CCN=C=S [AITC, allyl isothiocyanate]","Calcium response of cIII da neurons expressing dTRPA1-C, AITC",dTRPA1-C,renders them responsive to AITC; also recorded: rendered them sensitive to AITC
same,"Calcium response with ppk RNAi, AITC",[1],did not strongly affect their responses to AITC; also recorded: respond to AITC similarly as genetic controls
same,"Calcium response with bba RNAi, AITC",[2],did not strongly affect their responses to AITC; also recorded: respond to AITC similarly as genetic controls
same,"Calcium response of cIII da neurons, AITC",[3],do not activate strongly in response to AITC
same,"Calcium response of cIII da neurons expressing dTRPA1-D, AITC",dTRPA1-D,renders them responsive to AITC; also recorded: rendered them sensitive to AITC
